“And” between values parts separate entries of the source, which are not always exact repeats. Equal values may be shown once. “Also recorded” adds a separate entry of the source.
Legend:
[1] = tested on: human islet-derived 1.1B4 cells; assay: Acute static incubation, insulin secretion by radioimmunoassay, 1.1B4 cells; assay type: cell-based; conditions: for increase of insulin secretion: at 5.6 mmol/l glucose; for increase of the effect on raising glucose from 5.6 mmol/l to 11.1 mmol/l: 11.1 vs 5.6 mmol/l glucose
Description: (§1) Acute static incubations at 37° C. were performed using monolayers of insulin-secreting cells. […] Approximately 2.5×10^5 cells were then seeded in each well of 24-well multiplates (Iwaki Glass, Japan). […] The cells were incubated at 37° C. for 40 minutes, after which the buffer was removed and replaced with 0.5 ml KRBB test buffer. […] After 60 min incubation at 37° C., a 450 μl aliquot of KRBB test buffer was removed from each well into 2 ml polypropylene tube (Lip Plastics, England) and centrifuged at 900 rpm for 5 minutes at 4° C. The supernatant was then collected from each tube and 200 μl aliquots were then stored at −20° C. for subsequent insulin determination by radioimmunoassay.
(§2) Human insulin standards were prepared over a range of 2-fold serial dilutions from 5.0 ng/ml to 0.009 ng/ml using Human insulin standard (Sigma Chemical, UK). […] This antiserum was specificaly selected for high affinity with human insulin standard.
(§3) After a further 24 hours incubation at 4° C., 1 ml of a 5% (w/v) charcoal coated with 1:10 dextran T-70 in sodium phosphate buffer (40 mmol/1, pH 7.4) was added to each tube. […] Counts bound to antibody (average total counts minus counts bound to charcoal) are inversely proportional to the concentration of insulin in the standard or unknown sample. The unknown concentration was determined by means of the standard curve, constructed from the known […] insulin standard using a spline curve fitting algorithim.

[2] = tested on: human islet-derived 1.1E7 cells; assay: Acute static incubation, insulin secretion by radioimmunoassay, 1.1E7 cells; assay type: cell-based; conditions: for threshold glucose concentration for stimulation of insulin release in the presence of the agent: IBMX or 2 mmol/l 5-thioglucose included
Description: as §1, §2, §3

[3] = tested on: 1.1B4, 1.1E7, 1.4E7 and 1.2B4 cells; assay: Acute static incubation, insulin secretion, statements pooled over all four cell lines; assay type: cell-based, human; conditions: for insulin release at 11.1 mmol/l glucose: novel cells; for insulin release from the novel cell lines: each of the novel cell lines, glucose concentration not stated
Description: as §1, §2, §3

[4] = tested on: human islet-derived 1.2B4 cells; assay: Acute static incubation, insulin secretion by radioimmunoassay, 1.2B4 cells; assay type: cell-based
Description: as §1, §2, §3

[5] = tested on: human islet-derived 1.4E7 cells; assay: Acute static incubation, insulin secretion by radioimmunoassay, 1.4E7 cells; assay type: cell-based
Description: as §1, §2, §3

[6] = tested on: 1.2B4 cells; assay: Glucose utilisation from [5-3H]glucose, 1.2B4 cells; assay type: cell-based, human; conditions: 2 mmol/l 5-thioglucose, tested at 1.1 and 16.7 mmol/l glucose
Description: (§4) Experiments were performed in specially designed glass cups suspended inside standard counting vials with an airtight stopper. For each sample, 2.0×10^5 cells were incubated in the presence of either 1.1, 5.6, 11.1 or 16.7 mmol/l glucose and D-[5 ^3H] glucose to give a final concentration of 0.25 μCi (40 μl total volume) Effects of 2 mmol/l 5-thioglucose were also tested in 1.1 and 16.7 mmol/l glucose. Blanks were set up where the cells were omitted and replaced with KRBB to give a final concentration of either 1.1 or 16.7 mmol/l glucose. Standards consisted of D-[5^−3H] glucose (0.5 μCi) added to the base of the counting vial. The glass vials were sealed with the rubber caps and placed at 37° C. for one hour. The reaction was stopped by the addition of 0.2M HCl (50 μl) injected through the rubber cap directly into the centre well using a Hamilton syringe. Sterile deionized water was added (500 μl) through the sealed lid into the base of the vial. Vials were then placed at 37° C. for a 15 hour. The rubber caps and centre wells were removed and 5 ml of liquid scintillation fluid (BDH) added to each vial on top of the filter paper. Vials were capped and ^3H-glucose labelled radioactivity determined by scintillation counter.

[7] = tested on: PANC-1 cells; assay: Glucose oxidation from D-[U-14C]glucose, PANC-1 cells; assay type: cell-based, human; conditions: 2 mmol/l 5-thioglucose, tested at 1.1 and 16.7 mmol/l glucose
Description: (§5) A modification of the method developed by Keen et al. (1963) was used to determine oxidative glucose metabolism to CO2. In principle, the method involves incubation of cells in specially designed glass cups suspended inside standard counting vials with an airtight rubber stopper. A disc of filter paper (Whatman No. 1) was placed on the base of the counting vial. For each sample, 2.0×10^5 cells were incubated in the presence of either 1.1, 5.6, 11.1, 16.7 mmol/l glucose and D-[U-^14C] glucose to give a final concentration of […] (40 μl total volume). Effect of 2 mmol/l 5-thioglucose were also tested in 1.1 and 16.7 mmol/l glucose Blanks were set up where the cells were omitted and replaced with KRBB to give a final concentration of either 1.1 or 16.7 mmol/l glucose. Standards consisted of ^14C-labelled glucose (0.5 μCi) added to the filter paper at the base of the counting vial. The glass vials were sealed with the rubber caps and placed at 37° C. for one hour. The reaction was stopped by the addition of 0.2M HCl ([…]) injected through the rubber cap directly into the centre well using a Hamilton syringe. Phenylethylamine (PEA) was added (100 μl) through the sealed lid onto the filter paper at the base of the vial. Care was taken to avoid contamination of the centre well with PEA. […] Vials were capped and ^14C-glucose labelled radioactivity determined by scintillation counter.

[8] = tested on: 1.1E7 cells; assay: Glucose oxidation from D-[U-14C]glucose, 1.1E7 cells; assay type: cell-based, human; conditions: 2 mmol/l 5-thioglucose
Description: as §5

[9] = tested on: PANC-1 cells; assay: Glucose utilisation from [5-3H]glucose, PANC-1 cells; assay type: cell-based, human; conditions: 2 mmol/l 5-thioglucose, this concentration = 16.7 mmol/l glucose
Description: as §4

[10] = tested on: 1.1B4 cells; assay: Glucose utilisation from [5-3H]glucose, 1.1B4 cells; assay type: cell-based, human; conditions: 2 mmol/l 5-thioglucose
Description: as §4

[11] = tested on: 1.1B4 cells; assay: Glucose oxidation from D-[U-14C]glucose, 1.1B4 cells; assay type: cell-based, human; conditions: 2 mmol/l 5-thioglucose
Description: as §5

[12] = tested on: 1.2B4 cells; assay: Glucose oxidation from D-[U-14C]glucose, 1.2B4 cells; assay type: cell-based, human; conditions: 2 mmol/l 5-thioglucose, tested at 1.1 and 16.7 mmol/l glucose
Description: as §5

[13] = tested on: 1.4E7 cells; assay: Glucose oxidation from D-[U-14C]glucose, 1.4E7 cells; assay type: cell-based, human; conditions: 2 mmol/l 5-thioglucose
Description: as §5

[14] = tested on: 1.4E7 cells; assay: Glucose utilisation from [5-3H]glucose, 1.4E7 cells; assay type: cell-based, human; conditions: 2 mmol/l 5-thioglucose, tested at 1.1 and 16.7 mmol/l glucose
Description: as §4

[15] = tested on: Hup-T3 cells; assay: Glucose utilisation from [5-3H]glucose, Hup-T3 cells; assay type: cell-based, human; conditions: 2 mmol/l 5-thioglucose, tested at 1.1 and 16.7 mmol/l glucose
Description: as §4

[16] = tested on: Hup-T3 cells; assay: Glucose oxidation from D-[U-14C]glucose, Hup-T3 cells; assay type: cell-based, human; conditions: 2 mmol/l 5-thioglucose, tested at 1.1 and 16.7 mmol/l glucose
Description: as §5

[17] = tested on: 1.1E7 cells; assay: Glucose utilisation from [5-3H]glucose, 1.1E7 cells; assay type: cell-based, human; conditions: 2 mmol/l 5-thioglucose, tested at 1.1 and 16.7 mmol/l glucose
Description: as §4

[18] = all four cell lines, 16.7 mmol/l glucose
[19] = 200 μmol/ IBMX, glucose 0 to 16.7 mmol/l
[20] = 2 mmol/l 5-thioglucose, 0 to 11.1 mmol/l glucose
[21] = tested at 1.1 and 16.7 mmol/l glucose

C[C@H](N)C(=O)O [alanine, L-alanine]
increase of insulin secretion [1]: Significant effects
insulin secretory response at 11.1 mmol/l glucose compared with 5.6 mmol/l [2]: significantly greater
insulin release at 11.1 mmol/l glucose [3]: significant increases in insulin release
insulin secretion at 11.1 mmol/l glucose [4]: induced insulin secretion
insulin secretion at 11.1 mmol/l glucose [5]: induced insulin secretion

COc1ccc(Cl)cc1C(=O)NCCc1ccc(S(=O)(=O)NC(=O)NC2CCCCC2)cc1 [glibenclamide]
insulin release from the novel cell lines [3]: provoked insulin release

COc1ccc(CCN(C)CCCC(C#N)(c2ccc(OC)c(OC)c2)C(C)C)cc1OC (stereo not shown) [verapamil]
insulin output at 16.7 mmol/l glucose [3, 18]: similarly reduced

O=C(O)CN(CCOCCOCCN(CC(=O)O)CC(=O)O)CC(=O)O [EGTA]
insulin output at 16.7 mmol/l glucose [3, 18]: significantly inhibited

CC(C)CC(=O)C(=O)O [KIC]
insulin secretory response at 11.1 mmol/l glucose compared with 5.6 mmol/l [2]: significantly greater
insulin release at 11.1 mmol/l glucose [3]: significant increases in insulin release
insulin secretion at 11.1 mmol/l glucose [4]: induced insulin secretion
insulin secretion at 11.1 mmol/l glucose [5]: induced insulin secretion

N=C(N)NCCC[C@H](N)C(=O)O [arginine, L-arginine]
increase of the effect on raising glucose from 5.6 mmol/l to 11.1 mmol/l [1]: 17%
insulin secretory response at 11.1 mmol/l glucose compared with 5.6 mmol/l [2]: significantly greater
insulin secretion at non-stimulatory glucose ([3]; each cell line, 5.6 mmol/l glucose): significantly stimulated
insulin release at 11.1 mmol/l glucose [3]: significant increases in insulin release

CC(C)C[C@H](N)C(=O)O [leucine, L-leucine]
increase of the effect on raising glucose from 5.6 mmol/l to 11.1 mmol/l [1]: 30%
increase of insulin secretion [1]: Significant effects
insulin secretory response at 11.1 mmol/l glucose compared with 5.6 mmol/l [2]: significantly greater
insulin release at 11.1 mmol/l glucose [3]: significant increases in insulin release
insulin secretion at 11.1 mmol/l glucose [4]: induced insulin secretion
insulin secretion at 11.1 mmol/l glucose [5]: induced insulin secretion

CC1=NS(=O)(=O)c2cc(Cl)ccc2N1 [Diazoxide, diazoxide]
inhibition at 400 µM ([3]; Homo sapiens, all four cell lines, 16.7 mmol/l glucose, diazoxide 400 μmol/l, EGTA in Ca2+-free buffer, read-out: inhibition of insulin release): 20 to 50%
insulin output at 16.7 mmol/l glucose [3, 18]: significantly reduced

isobutylmethylxanthine [IBMX]
increase of secretory response to glucose by IBMX [1, 19]: 20 to 100% and 20 to 60%
stimulation of secretory response with IBMX [1, 19]: 1.3-2 fold
insulin secretion with IBMX in the absence of glucose ([1]; absence of glucose): modestly enhanced
increase of secretory response to glucose by IBMX [2, 19]: 20 to 100% and 20 to 60%
stimulation of secretory response with IBMX [2, 19]: 1.3-2 fold
threshold glucose concentration for stimulation of insulin release in the presence of the agent [2]: 5.6 mmol/L
effect of IBMX on insulin released ([4]; 200 μmol/ IBMX): did not significantly affect; also recorded: insensitive
increase of secretory response to glucose by IBMX [5, 19]: 20 to 100% and 20 to 60%
stimulation of secretory response with IBMX [5, 19]: 1.3-2 fold
insulin secretion with IBMX in the absence of glucose ([5]; absence of glucose): modestly enhanced

O=CC(O)CO (stereo not shown) [glyceraldehyde]
insulin release from the novel cell lines [3]: significantly stimulate

O=C[C@H](O)[C@@H](O)[C@H](O)[C@H](S)CO [5-thioglucose]
effect of 5-thioglucose on glucose utilisation [6]: had no affect
effect of 5-thioglucose on glucose oxidation [7]: significant inhibition of oxidation at both 1.1 and 16.7 mmol/l
lowering of insulin output by 5-thioglucose [1, 20]: 20-50% and 20 to 50%
ratio of glucose oxidation:glucose utilisation on addition of 5-thioglucose [8]: significant increase in ratio
effect of 5-thioglucose on glucose utilisation [9]: inhibit utilisation only at this concentration
lowering of insulin output by 5-thioglucose [2, 20]: 20-50% and 20 to 50%
threshold glucose concentration for stimulation of insulin release in the presence of the agent [2]: 5.6 mmol/L
effect of 5-thioglucose on responsiveness to increasing glucose concentrations ([3]; all four cell lines, 2 mmol/l 5-thioglucose): improved; also recorded: caused a shift
glucose-stimulated insulin release in the presence of 5-thioglucose ([4]; 2 mmol/l 5-thioglucose): became apparent
lowering of insulin output by 5-thioglucose [4, 20]: 20-50% and 20 to 50%
effect of 5-thioglucose on insulin output and glucose responsiveness ([5]; 2 mmol/l 5-thioglucose): least affected; also recorded: not affected
effect of 5-thioglucose on glucose utilisation ([10]; 1.1 mmol/l glucose): did not affect
effect of 5-thioglucose on glucose utilisation ([10]; 16.7 mmol/l glucose): reduce utilisation
ratio of glucose oxidation:glucose utilisation on addition of 5-thioglucose [11]: significant increase in ratio
effect of 5-thioglucose on glucose oxidation [11, 21]: inhibit the oxidation of glucose at both 1.1 mmol/l and 16.7 mmol/l glucose; also recorded: only marginally inhibited
effect of 5-thioglucose on glucose oxidation [12]: inhibited oxidation at 16.7 mmol/l
ratio of glucose oxidation:glucose utilisation on addition of 5-thioglucose [13]: significant increase in ratio
effect of 5-thioglucose on glucose oxidation [13, 21]: clearly inhibiting oxidation at both 1.1 and 16.7
effect of 5-thioglucose on glucose utilisation [14]: unaffected
effect of 5-thioglucose on glucose utilisation [15]: did not inhibit
effect of 5-thioglucose on glucose oxidation [16]: able to inhibit oxidation at both 1.1 and 16.7 mmol/l glucose
effect of 5-thioglucose on glucose utilisation [17]: only affected utilisation at 16.7 mmol/l

[Cl-].[K+] [KCl]
secretory responsiveness at passage 40 ([3]; all four cell lines, passage 40 vs 17): maintain responsiveness
insulin release from the novel cell lines [3]: provoked insulin release

CCCCNC(=O)NS(=O)(=O)c1ccc(C)cc1 [tolbutamide]
increase of the effect on raising glucose from 5.6 mmol/l to 11.1 mmol/l [1]: 20%
insulin release from the novel cell lines [3]: provoked insulin release

Reference: US20040005702A1, “Insulin producing cell-line” (priority 2000, published 2004)
